We go through twelve compounds from patent US7579348B2, “Derivatives of 8-substituted xanthines” (PGxHealth, LLC, priority 2005, dated 2009).

The target of the test is T1, rat A2B receptors (rA2B) (Rattus norvegicus, UniProt P29276).
T1 construct: expressed in transfected cells; membranes)
T1 sequence (P29276 1-332): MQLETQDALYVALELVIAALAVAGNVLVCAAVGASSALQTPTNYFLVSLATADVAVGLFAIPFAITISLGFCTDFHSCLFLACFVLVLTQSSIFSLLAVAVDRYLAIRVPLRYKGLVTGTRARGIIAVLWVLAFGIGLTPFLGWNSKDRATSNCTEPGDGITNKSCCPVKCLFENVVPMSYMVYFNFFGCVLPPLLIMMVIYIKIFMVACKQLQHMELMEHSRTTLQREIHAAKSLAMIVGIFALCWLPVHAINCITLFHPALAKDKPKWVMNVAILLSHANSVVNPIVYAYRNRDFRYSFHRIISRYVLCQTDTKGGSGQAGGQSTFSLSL
As to the kind of experiment: Radioligand binding, displacement of specific [125I]ABOPX binding. As to conditions: displacement of specific [125I]ABOPX binding at rat A2B receptors expressed in HEK-293 cells; read-out: RatA2B Ki. An excerpt: The rat A2B receptor cDNA was subcloned into the expression plasmid pDoubleTrouble using techniques described in Robeva, A. et al., Biochem. Pharmacol., 51, 545-555 (1996). The plasmid was amplified in competent JM109 cells and plasmid DNA isolated using Wizard Megaprep columns (Promega Corporation, Madison, Wis.). A2B adenosine receptors were introduced into HEK-293 cells by means of Lipofectin as described in Felgner, P. L. et al., Proc. Natl. Acad. Sci. USA, 84, 7413-7417 (1987).
Transfected HEK cells were grown under 5% CO2/[…] humidified atmosphere at a temperature of 37° C. Colonies were selected by growth of cells in 0.6 mg/mL G418. Transfected cells were maintained in DMEM supplemented with Hams F 12 nutrient mixture (1/1), 10% newborn calf serum, 2 mM glutamine and containing 50 IU/mL penicillin, […], and 0.2 mg/mL Geneticin (G418, Boehringer Mannheim). Cells were cultured in 10 cm diameter round plates and subcultured when grown confluent (approximately after 72 hours).
At A2B receptors: Confluent monolayers of HEK-A2B cells were washed with PBS followed by ice cold Buffer A (10 mM HEPES, 10 mM EDTA, pH 7.4) with protease inhibitors (10 μg/mL benzamidine, 100 μM phenylmethanesulfonyl fluoride, and 2 μg/mL of each aprotinin, pepstatin and leupeptin). The cells were homogenized in a Polytron (Brinkmann) for 20s, centrifuged at 30,000 ×g, and the pellets washed twice with buffer HE (10 mM HEPES, 1 mM EDTA, pH 7.4 with protease inhibitors). The final pellet was resuspended in buffer HE, supplemented with 10% sucrose and frozen in aliquots at −80° C. For binding assays membranes were thawed and diluted 5-10 fold with HE to a final protein concentration of approximately 1 mg/mL. To determine protein concentrations, membranes, and bovine serum albumin standards were dissolved in 0.2% NaOH/0.01% SDS and protein determined using fluorescamine fluorescence. Stowell, C. P. et al., Anal. Biochem., 85, 572-580 (1978).
Saturation binding assays for rat A2B adenosine receptors were performed with [^3H]ZM214,385 (17 Ci/mmol, Tocris Cookson, Bristol UK) (Ji, X. et al., Drug Design Discov., 16, 216-226 (1999)) or ^125I-ABOPX (2200 Ci/mmol). To prepare 125I-ABOPX, 10 μL of 1 mM ABOPX in methanol/1 M NaOH (20:1) was added to 50 μL of 100 mM phosphate buffer, pH 7.3. One or 2 mCi of Na^125I was added, followed by 10 μL of 1 mg/mL chloramine-T in water. After incubation, 20 minutes at room temperature, 50 μL of 10 mg/mL Na-metabisulfite in water was added to quench the reaction. The reaction mixture was applied to a C18 HPLC column, eluting with a mixture of methanol and 5 mM phosphate, pH 6.0. After 5 min at 35% methanol, the methanol concentration was ramped to 100% over 15 min. Unreacted ABOPX eluted in 11-12 minutes; ^125I-ABOPX eluted at 18-19 min in a yield of 50-60% with respect to the initial ^125I.
In equilibrium binding assays the ratio of ^127I/^125I-ABOPX was 10-20/1. Radioligand binding experiments were performed in triplicate with 20-25 μg membrane protein in a total volume of 0.1 mL HE buffer supplemented with 1 U/mL adenosine deaminase and 5 mM MgCl2. The incubation time was 3 h at 21° C. Nonspecific binding was measured in the presence of 100 μM NECA. Competition experiments were carried out using 0.6 nM ^125I-ABOPX. Membranes were filtered on Whatman GF/C filters using a Brandel cell harvester (Gaithersburg, Md.) and washed 3 times over 15-20 seconds with ice cold buffer (10 mM Tris, 1 mM MgCl2, pH 7.4). Bmax and KD values were calculated by Marquardt's nonlinear least squares interpolation for single a site binding models. Marquardt, D. M., J. Soc. Indust. Appl. Math., 11, 431-441.21 (1963). Ki values for different compounds were derived from IC50 values as described. Linden, J., J. Cycl. Nucl. Res., 8, 163-172 (1982). Data from replicate experiments are tabulated as means ±SEM. […]

Turning to `CCCn1c(=O)c2[nH]c(-c3ccc(NN)nc3)nc2n(CCC)c1=O` [Compound 1, 1,3-Dipropyl-8-[6-hydrazino-3-pyridyl]xanthine], the Ki fell in the range of 100 to 500 nM.
Consider `CCn1c(=O)c2[nH]c(-c3ccc(-n4nc(C)cc4-c4ccccc4)nc3)nc2n(CC)c1=O` [Compound 2, 1,3-diethyl-8-(6-(3-methyl-5-phenyl-1H-pyrazol-1-yl)pyridin-3-yl)-1H-purine-2,6(3H,7H)-dione], for which the Ki was in the range of 500 to 5000 nM.
For `CCn1c(=O)c2[nH]c(-c3ccc4nnc(C(F)(F)F)n4c3)nc2n(CC)c1=O` [Compound 3, 1,3-Diethyl-8-(3-(trifluoromethyl)-[1,2,4]triazolo[4,3,a]pyridin-6-yl)-1H-purine-2,6(3H,7H)-dione], the Ki was 100 to 500 nM.
For the compound `CCn1c(=O)c2[nH]c(-c3ccc4nnc(C)n4c3)nc2n(CC)c1=O` [Compound 4, 1,3-Diethyl-8-(3-methyl-[1,2,4]triazolo[4,3,a]pyridin-6-yl)-1H-purine-2,6(3H,7H)-dione], the Ki was in the range of 100 to 500 nM.
Turning to `CCCn1c(=O)c2[nH]c(-c3ccc(-n4nc(C)cc4-c4ccccc4)nc3)nc2n(CCC)c1=O` [Compound 5, 8-(6-(3-methyl-5-phenyl-1H-pyrazol-1-yl)pyridin-3-yl)-1,3-Dipropyl-1H-purine-2,6(3H,7H)-dione], the Ki was in the range of 100 to 500 nM.
Turning to `CCCn1c(=O)c2[nH]c(-c3ccc(-n4nc(C(F)(F)F)cc4-c4cccs4)nc3)nc2n(CCC)c1=O` [Compound 8, 8-(6-(3-(trifluoromethyl)-5-(thiophen-2-yl)-1H-pyrazol-1-yl)pyridin-3-yl)-1,3-Dipropyl-1H-purine-2,6(3H, 7H)-dione], the Ki lay in the range of 100 to 500 nM.
For `CCCn1c(=O)c2[nH]c(-c3ccc(-n4nc(C(F)(F)F)cc4-c4ccco4)nc3)nc2n(CCC)c1=O` [Compound 9, 8-(6-(3-(trifluoromethyl)-5-(furan-2-yl)-1H-pyrazol-1-yl)pyridin-3-yl)-1,3-Dipropyl-1H-purine-2,6(3H, 7H)-dione], the inhibitory constant (Ki) was under 100 nM.
On to `CCCn1c(=O)c2[nH]c(-c3ccc(-n4nc(C)cc4C)nc3)nc2n(CCC)c1=O` [Compound 10], for which the Ki was 100 to 500 nM.
In the case of `CCCn1c(=O)c2[nH]c(-c3ccc(-n4nc(C(=O)OCC)cc4C)nc3)nc2n(CCC)c1=O` [Compound 13], the Ki was in the range of 100 to 500 nM.
To `CCCn1c(=O)c2[nH]c(-c3ccc4nncn4c3)nc2n(CCC)c1=O` [Compound 14, 1,3-Dipropyl-8-([1,2,4]triazolo[4,3,a]pyridin-6-yl)-1H-purine-2,6(3H, 7H)-dione] belongs 100 to 500 nM; to `CCCn1c(=O)c2[nH]c(-c3ccc(-n4nc(-c5ccccc5)cc4N)nc3)nc2n(CCC)c1=O` [Compound 15, 8-(6-(5-Amino-3-phenyl-1H-pyrazol-1-yl)pyridin-3-yl)-1,3-dipropyl-1H-purine-2,6(3H, 7H)-dione], under 100 nM.
Take `CCCn1c(=O)c2[nH]c(-c3ccc(-n4nc(-c5ccco5)cc4N)nc3)nc2n(CCC)c1=O` [Compound 16, 8-(6-(5-Amino-3-(furan-2-yl)-1H-pyrazol-1-yl)pyridin-3-yl)-1,3-dipropyl-1H-purine-2,6(3H, 7H)-dione]: the Ki is under 100 nM.
